# Reference: US20240285808A1, “MOLECULAR PROBES FOR IN VIVO DETECTION OF ALDEHYDES” (The General Hospital Corporation, priority 2021, published 2024)
# How the values were obtained:
# [1] = system: human fibrotic/cirrhotic liver associated with NASH and normal liver tissue; test: LA-ICP-MS gadolinium imaging of human liver sections incubated with Gd-9; assay type: binding
# Method: Liver tissues were obtained from a total of 9 anesthetized patients who underwent surgical resection at Massachusetts General Hospital, and analyzed in accordance with a protocol approved by the Massachusetts General Hospital's Institutional Review Board.
# Tissue Analysis for Human Tissues
# The dissected tissues were immediately snap frozen in OCT using liquid nitrogen, sectioned into 10-μm-thick slices and stored at −80° C. Subsequently, the tissue sections were first allowed to warm to room temperature for 10 min and then fixed in 60% ethanol for 30 min, and washed with PBS. The following steps were the same as described above for the Sirius red staining and DNPH-reactivity assay.
# (§1) LA-ICP-MS Gadolinium Imaging Analysis
# (§2) Sample preparation. Harvested rat livers after MR imaging were immediately snapfrozen in OCT using liquid nitrogen, sectioned into 10-μm-thick slices, stored in −80° C. One slice was assessed by LA-ICP-MS directly. One adjacent slide was incubated with 0.1 mM Gd-9 at 37° C. for 2 h, followed with 0.2 mM NaBH3CN for 2 h and washed with PBS (3×10 min). Another adjacent slide was incubated with 0.1 mM Gd-9 and 10 mM hydrazine at 37° C. for 2 h, followed with 0.2 mM NaBH3CN for 2 hand washed with PBS (3×10 min). Similar procedures were carried out for human tissues. Slides were incubated with 0.1 mM Gd-9 at 37° C. for 2h, followed with 0.2 mM NaBH3CN for 2 h and washed with PBS (3×10 min).
# Gadolinium mapping. Elemental images were collected from sections of liver tissue via laser ablation inductively coupled plasma mass spectrometry at the Biomedical National Elemental Imaging Resource (BNEIR). The instrumentation used was a New Wave Research 213 nm laser ablation system with a 10 cm^2 sample chamber, interfaced with an Agilent 7900 ICP-MS system. Samples were ablated in no-gas mode, with helium as a carrier gas at a flow rate of […]. The laser power was 65% and the frequency was 20 Hz. Ablation patterns consisted of continuous lines, with either a 12 μm or […] square beam and a scan speed of 120 μm sec^−1 or 200 μm sec^−1 respectively, as noted. The acquisitions time for gadolinium (mass 157) was 0.015 s. Elemental imaging data was quantified using metal-doped gelatin standards prepared at BNEIR and National Institute of Standards and Technology (NIST) certified references material 1515 (apple leaves). Data reduction was performed in the Iolite software application, using carbon (mass 13) as an internal standard to normalize the data.
# The applicability of Gd-9 to assess fibrogenesis in human liver specimens was investigated. Resected human fibrotic/cirrhotic liver associated with NASH (n=5) and normal liver tissue (n=4) (Table C) were sectioned and stained for Lys^Ald.
# liver of BDL rats = test: LA-ICP-MS gadolinium imaging of rat liver after Gd-9 MRI; assay type: in vivo; settings: BDL rat liver harvested 30 min p.i.
# Method: as §1, §2
# Gadolinium mapping. Elemental images were collected from sections of liver tissue via laser ablation inductively coupled plasma mass spectrometry at the Biomedical National Elemental Imaging Resource (BNEIR). The instrumentation used was a New Wave Research 213 nm laser ablation system with a 10 cm^2 sample chamber, interfaced with an Agilent 7900 ICP-MS system. Samples were ablated in no-gas mode, with helium as a carrier gas at a flow rate of 600 L min^−1. […] Elemental imaging data was quantified using metal-doped gelatin standards prepared at BNEIR and National Institute of Standards and Technology (NIST) certified references material 1515 (apple leaves). […]
smiles,measurement,setting,value
"NN1CCN(C(=O)CCC(C(=O)[O-])N2CCN(CC(=O)[O-])CCN(CC(=O)[O-])CCN(C(CCC(=O)N3CCN(N)CC3)C(=O)[O-])CC2)CC1.[Gd+3] (stereo not drawn) [Gd-9, cis-1,4-Gd-(CHyd)2]",average Gd concentration in fibrotic human liver,[1]; across all samples,80.4±15.5 ppm
same,average Gd concentration in normal liver,[1]; across all samples,23.7±10.8 ppm
same,average Gd concentration in Lys^Ald positive areas,[1]; fibrotic human liver slices incubated with 0.1 mM probe,30-200 ppm Gd
same,average Gd concentration in regions with low Lys^Ald,[1]; human liver slices incubated with 0.1 mM probe,< 30 ppm Gd
same,Gd accumulation in fibrotic septa (LA-ICP-MS),liver of BDL rats,~50 ppm
